In data set [1] the test system is primary neurons. The data set can be described thus: CCK8 cell viability (toxicity) assay in primary neurons. The data set is classed as cell-based, mouse. The following applies: 24 h, CCK8, three replicate wells. The source says:
The CCK8 cell viability assay (CCK8) was adopted. Its principle is mainly based on the reduction reaction of WST-8 (chemical name: 2-(2-methoxy-4-nitrophenyl)-3-(4-nitrophenyl)-5-(2,4-disulfophenyl)-2H-tetrazolium monosodium salt). In the presence of living cells, WST-8 can be reduced by dehydrogenases in mitochondria to generate a highly water-soluble orange-yellow formazan product. The color intensity is directly proportional to the number of living cells, wherein the quantity of living cells can be indirectly reflected by measuring the absorbance of formazan products (typically at a wavelength of 450 nm). The CCK-8 assay is widely used in cell proliferation assay, cytotoxicity assay and tumor drug sensitivity test.
Primary hippocampal neuron culture: After ICR fetal mice at 18-21 days of gestation (E18-E21) were anesthetized, the fetal mice were dissected in a clean area and immersed in 75% ethanol for 1-2 min. The mouse head was taken out, the surface skull was removed with micro-scissors, and the brain tissue was transferred to an anatomical dissociation solution. Under a microscope, blood vessels and meninges were removed, hippocampal tissue was isolated, the extracted hippocampal tissue was placed in a 3.5 cm dish containing the anatomical dissociation solution, and the hippocampal tissue was cut into small fragments using micro-scissors. The minced hippocampal tissue was transferred to a 7 ml EP tube using a pipette gun. The hippocampal tissue hereinabove was centrifuged at 1000 rpm for 3-5 min, and the anatomical separation solution was discarded. 0.5-1 ml of papain digestion solution was added to the EP tube hereinabove, and the EP tube was placed in a 37°C incubator for 30 min. 300 µL of Trituration buffer 300 (DNase) and 5 mL of complete medium were added, and the hippocampal tissue was gently pipetted more than 10 times. The cell suspension was allowed to stand for 3 min, and 3-4 ml of supernatant was gently aspirated into a 15 ml tube using a pipette. 3-4 ml of complete medium was added again, and the hippocampal tissue was gently pipetted more than 10 times. Step 8 was repeated, and 3-4 ml of supernatant was transferred to the same 15 ml tube again. The previous step was repeated again. The collected supernatant was centrifuged at 1000 rpm, the supernatant was discarded, and 5 ml of complete medium was added. The mixture was gently pipetted and suspended, and then centrifuged again at 1000 rpm for 5 min. The complete medium was added to resuspend the cells, and then a portion of the cells was aspirated for counting. Generally, when neuronal cells were planted in a 24-well plate, the concentration of the cell suspension was generally 2×10^5/ml, and 500 µl of cells is inoculated per well. The resuspended neuron cells with a diluted ratio were seeded onto a glass slide treated with PDL, then the glass slide was placed in a 37°C incubator for 10 min, an appropriate amount of complete medium was added, and then the culture is continued in the incubator.

The subject of data set [2] is primary neurons. The data set can be described thus: Dendritic spine density of neurons in the in vitro AD model (APPsw lentivirus). The format is cell-based, mouse. Here is the method: The extraction and culture of primary neurons were the same as those hereinabove (toxicity experiment section). Transfection of neurons using plasmid calcium: A neuron culture medium (half medium change) was aspirated and placed in a 37°C water bath for later use, and Neurobasel A was added to a 24-well plate. 500 ng of plasmid DNA was dissolved in 12.5 µl of CaCl2 solution, and then centrifuged. 12.5 µl of HBS was added to the EP tube, and then centrifuged. The mixed solution hereinabove was added to the 24-well plate. The 24-well plate was gently shaken, and then placed back into a 37°C incubator to stand for 90 min. […] On day 6 of in vitro culture (DIV6), the original medium was semi-quantitatively collected, and the lentivirus stock solution (100 µl) was diluted with the original medium (10 ml) at a ratio of […]. […] Primary neurons were transfected with calcium-transformed GFP plasmids on day 4 of in vitro culture to enable the neurons to carry green fluorescence for observing neuronal dendrites. […] After 14 days of in vitro culture, the neurons were fixed with 4% PFA, photographed under a 100× oil immersion lens of a confocal fluorescence microscope, and the dendritic spine density per 10 µm length of the neurons was calculated by observing GFP green fluorescence.

Several values for one entry are separate records, joined by “and”; a condition that tells them apart may be missing. Equal entries are not always repeated.

Turning to `CCOC(=O)c1[nH]c(C)c(CCC(=O)N2CCCC(C(=O)NCCN3CCCCCC3)C2)c1C` (centres unmarked) [compound of Formula I, ETHYL4-[3-(3-{[2-(AZEPAN-1-YL)ETHYL]CARBAMOYL}PIPERIDIN-1-YL)-3-OXOPROPYL]-3, 5-DIMETHYL-1H-PYRROLE-2-CARBOXYLATE], the cell viability in the data set with primary neurons [1] (1.25 µmol) was 88.68% and 77.1%; in the data set on primary neurons [1] (5 µmol), 77.35% and 75.31%; in the data set with primary neurons [1] (10 µmol), 58.82% and 65.03%; in the data set on primary neurons [1] (20 µmol) it was 40.38% and 35.57%; in the data set on primary neurons [1] (40 µmol) it was 23.14% and 48.19% and 36.68%; with primary neurons [1] (160 µmol), 3.329% and 5.244%. In addition, in the data set on primary neurons [2] (APP SW+intervention, compound 2.5 µmol for 24 h, individual neurons), the “number of dendritic spines of neurons (normalized to the control group)” value is 0.7841 and 0.7357 and 0.6856 and 0.8651 and 0.6806 and 0.6909 and 0.6481 and 0.7086. Besides, the dendritic spine density result with primary neurons [2] (in vitro AD model (APPsw virus), after compound intervention, group comparison) is given as “increased”.

One may read the cell viability as a read-out of living cells in per cent, often relative to untreated cells. Lower therefore signals a greater loss of cells.

Source of the values: patent publication EP4818330A1, “PHARMACEUTICAL PREPARATION FOR DIAGNOSING AND TREATING ALZHEIMER'S DISEASE” (Shanghai East Hospital Tongji University, priority 2023, dated 2025).
